Like-named read-outs stand apart in the source and are kept apart here. One block for each compound: values may come before it.
Tests used:
human PPARalpha = target: T1, human PPARalpha (Homo sapiens, UniProt Q07869); assay: Cellular PPARalpha assay (luciferase reporter, stably transfected HEK cell line); assay type: cell-based; details: GR-GAL4-humanPPARalpha-LBD
T1 construct: amino acids S167-Y468; expressed in transfected cells; host or cells: HEK (human embryo kidney) cells, stably transfected with a pcDNA3 construct
T1 sequence (Q07869 167-468): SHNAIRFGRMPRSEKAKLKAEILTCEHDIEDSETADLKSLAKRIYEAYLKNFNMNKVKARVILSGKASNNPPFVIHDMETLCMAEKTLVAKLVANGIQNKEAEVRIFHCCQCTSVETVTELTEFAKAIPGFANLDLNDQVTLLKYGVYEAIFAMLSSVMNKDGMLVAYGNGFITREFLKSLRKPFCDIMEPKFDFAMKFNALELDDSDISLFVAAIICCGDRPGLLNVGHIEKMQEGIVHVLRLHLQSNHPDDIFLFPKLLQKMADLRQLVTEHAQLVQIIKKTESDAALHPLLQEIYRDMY
Experimental: (§1) The potency of substances which bind to human PPARalpha and activate it in an agonistic manner is analyzed using a stably transfected HEK cell line (HEK=human embryo kidney) which is referred to here as PPARalpha reporter cell line. It contains two genetic elements, a luciferase reporter element (pdeltaM-GAL4-Luc-Zeo) and a PPARalpha fusion protein (GR-GAL4-humanPPARalpha-LBD) which mediates expression of the luciferase reporter element depending on a PPARalpha ligand. The stably and constitutively expressed fusion protein GR-GAL4-humanPPARalpha-LBD binds in the cell nucleus of the PPARalpha reporter cell line via the GAL4 protein portion to the GAL4 DNA binding motifs 5″-upstream of the luciferase reporter element which is stably integrated in the genome of the cell line. There is only weak expression of the luciferase reporter gene in the absence of a PPARalpha ligand if fatty acid-depleted fetal calf serum (cs-FCS) is used in the assay. PPARalpha ligands bind and activate the PPARalpha fusion protein and thereby stimulate the expression of the luciferase reporter gene. The luciferase which is formed can be detected by means of chemiluminescence via an appropriate substrate.
The PPARalpha reporter cell line was prepared in two stages. […]
The activity of PPARalpha agonists is determined in a 3-day assay which is described below: […]

human PPARdelta = target: T2, human PPARdelta (Homo sapiens, UniProt Q03181); assay: Cellular PPARdelta assay (luciferase reporter, stably transfected HEK cell line); assay type: cell-based; details: GR-GAL4-humanPPARdelta-LBD
T2 construct: amino acids S139-Y441; expressed in transfected cells; host or cells: HEK (human embryo kidney) cells, stably transfected with a pcDNA3 construct
T2 sequence (Q03181 139-441): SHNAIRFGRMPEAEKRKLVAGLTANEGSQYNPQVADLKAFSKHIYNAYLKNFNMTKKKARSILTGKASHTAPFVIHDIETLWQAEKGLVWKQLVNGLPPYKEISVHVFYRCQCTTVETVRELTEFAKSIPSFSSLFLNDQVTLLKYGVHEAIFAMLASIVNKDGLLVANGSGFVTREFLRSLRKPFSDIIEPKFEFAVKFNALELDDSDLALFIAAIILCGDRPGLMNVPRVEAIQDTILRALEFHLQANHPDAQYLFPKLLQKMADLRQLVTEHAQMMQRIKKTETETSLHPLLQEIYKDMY
Experimental: as §1, with “PPARdelta” for “PPARalpha”, “In analogy to the assay described for PPARalpha, the PPARdelta reporter cell line also” for “It”, “(GR-GAL4-humanPPARdelta-LBD)” for “(GR-GAL4-humanPPARalpha-LBD)”, “GR-GAL4-humanPPARdelta-LBD” for “GR-GAL4-humanPPARalpha-LBD”, “little” for “weak”, “stimulate” for “stimulate the”
The production of the stable PPARdelta reporter cell line is based on a stable HEK-cell clone which was stably transfected with a luciferase reporter element. This step was already described above in the section “construction of the PPARalpha reporter cell line”. […]
The activity of PPARdelta agonists is determined in a 3-day assay in exact analogy to the procedure already described for the PPARalpha reporter cell line except that the PPARdelta reporter cell line and a specific PPARdelta agonist was used as a standard to control test efficacy.

[1] = diabetic animal model; cited from earlier work
[2] = obese, insulin resistant rhesus monkeys, cited from earlier work
[3] = two weeks clinical trials in healthy volunteers; cited from earlier work
[4] = rhesus and cynomolgus monkeys; cited from earlier work

EC50 (human PPARalpha): 920 nM | EC50 (human PPARdelta): 21 nM
SMILES: O=c1[nH]c(-c2ccc(S(=O)(=O)N3CCc4cc(-c5ccc(C(F)(F)F)cc5)ccc43)s2)no1 [Example 1, 3-{5-[5-(4-Trifluoromethyl-phenyl)-2,3-dihydro-indole-1-sulfonyl]thiophen-2-yl}-4H-[1,2,4]oxadiazol-5-one]

EC50 (human PPARalpha): 6700 nM | EC50 (human PPARdelta): 336 nM
SMILES: O=c1[nH]c(-c2ccc(S(=O)(=O)N3CCc4cc(-c5ccc(C(F)(F)F)cc5)ccc43)nc2)no1 [Example 2, 3-{6-[5-(4-Trifluoromethyl-phenyl)-2,3-dihydro-indole-1-sulfonyl]-pyridin-3-yl}-4H-[1,2,4]oxadiazol-5-one]

EC50 (human PPARdelta): 13 nM
SMILES: O=c1[nH]c(-c2ccc(S(=O)(=O)N3CCc4cc(-c5ccc(C(F)(F)F)cc5)ccc43)cn2)no1 [Example 3, 3-{5-[5-(4-Trifluoromethyl-phenyl)-2,3-dihydro-indole-1-sulfonyl]-pyridin-2-yl}-4H-[1,2,4]oxadiazol-5-one]

SMILES: CCCc1c(OCCCOc2ccc(OCC(=O)O)cc2)ccc(C(C)=O)c1O [Example L-165041]
plasma cholesterol [1]: raises plasma cholesterol

SMILES: Cc1cc(SCc2sc(-c3ccc(C(F)(F)F)cc3)nc2C)ccc1OCC(=O)O [GW501516]
insulin levels ([2]; plasma): decreases | triglycerides ([2]; plasma): decreases | HDL-cholesterol [2]: raises | plasma LDL-cholesterol [2]: decreases

SMILES: CCCc1c(OCCCSc2nnc(SCC(=O)O)s2)ccc(C(C)=O)c1O [YM-16638]
plasma lipids [3]: acts in a similar manner | plasma lipids [4]: significantly lowers plasma lipids

— patent US8716317B2, “Sulfonamides with heterocycle and oxadiazolone headgroup, processes for their preparation and their use as pharmaceuticals” (Sanofi, priority 2008, dated 2014)
